Data as given in article PMC6271941, “Ruthenium^II(η^6-arene) Complexes of Thiourea Derivatives: Synthesis, Characterization and Urease Inhibition” (Molecules, 2014).

Each molecule was assayed against jack bean urease (Canavalia ensiformis, UniProt P07374) (assay: biochemical). Conditions: not given.
Chain of jack bean urease (P07374 whole entry, looked up): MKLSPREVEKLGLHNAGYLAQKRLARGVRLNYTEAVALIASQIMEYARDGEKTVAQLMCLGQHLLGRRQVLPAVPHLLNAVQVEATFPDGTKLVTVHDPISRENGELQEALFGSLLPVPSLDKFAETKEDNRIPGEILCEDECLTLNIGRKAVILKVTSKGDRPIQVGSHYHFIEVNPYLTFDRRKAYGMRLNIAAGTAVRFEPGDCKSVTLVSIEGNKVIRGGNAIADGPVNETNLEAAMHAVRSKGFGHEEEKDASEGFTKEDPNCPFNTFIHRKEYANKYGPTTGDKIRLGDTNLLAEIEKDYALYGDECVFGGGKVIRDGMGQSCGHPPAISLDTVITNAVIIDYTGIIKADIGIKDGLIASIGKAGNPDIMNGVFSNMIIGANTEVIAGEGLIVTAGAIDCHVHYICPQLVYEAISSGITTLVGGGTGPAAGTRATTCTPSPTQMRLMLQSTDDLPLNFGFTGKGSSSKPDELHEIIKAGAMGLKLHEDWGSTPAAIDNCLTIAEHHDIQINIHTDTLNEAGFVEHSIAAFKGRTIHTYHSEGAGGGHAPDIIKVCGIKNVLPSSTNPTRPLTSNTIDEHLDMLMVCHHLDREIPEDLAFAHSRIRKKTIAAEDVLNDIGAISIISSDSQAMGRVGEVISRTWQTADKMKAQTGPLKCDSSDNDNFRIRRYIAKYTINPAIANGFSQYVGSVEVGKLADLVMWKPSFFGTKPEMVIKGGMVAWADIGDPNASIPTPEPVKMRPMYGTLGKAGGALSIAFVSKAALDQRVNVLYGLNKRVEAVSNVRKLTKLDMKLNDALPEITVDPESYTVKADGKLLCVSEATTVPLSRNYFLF
Format: biochemical
Method: The urease inhibitory activity was measured according to a reported method with slight modifications. The enzyme (5 U/mL; 10 μL) and test compound in buffer (10 μL) were sequentially added to 40 μL of buffer (pH 8.2) containing 100 mM urea, 1 mM EDTA, 0.01 M K2HPO4 and 0.01 M […]. The mixture was pre-incubated for 30 min at 37 °C. The reaction was initiated by the addition of 40 μL of phenol reagent (1%, w/v phenol, 0.005%, w/v sodium nitroprusside) and 40 μL of alkali reagent (0.5%, w/v NaOH, 0.1% active chloride NaOCl) to each well. After 10 min of incubation at 37 °C, the absorbance was measured at 630 nm using a Microplate reader (Bio-Tek ELx 800^TM, Instruments, Inc. USA). All the experiments were carried out with their respective controls in triplicate. Thiourea (0.1 mM well^−1) was used as a positive control.
With `S=C1NCCN1` [I, imidazolidine-2-thione] the IC50 was 232 ± 27 µM.
With `S=C1NCCCN1` [II, 1,3-diazinane-2-thione] the IC50 was 118 ± 13 µM.

Same assay, conditions: enzyme 5 U/mL, 100 mM urea, buffer pH 8.2, 30 min pre-incubation at 37 °C, absorbance at 630 nm, triplicate; read-out: Inhibitory activity IC50 against jack bean urease
`NC(N)=S` [Thiourea] gave an IC50 of 22.1 ± 1.4 µM.
In the case of “[Chlorido(η^6-p-cymene)(1,3-diazinane-2-thione)(triphenylphosphine)ruthenium(II)] hexafluoro-phosphate [Compound 12]”, the IC50 is reported as > 600 µM.
With “[Chlorido(η^6-p-cymene)(1H-benzo[d]imidazole-2(3H)-thione)(triphenylphosphine)ruthenium(II)] hexafluorophosphate [Compound 13]” the IC50 was > 600 µM.
For “[Chlorido(η^6-p-cymene)(imidazolidine-2-thione)(triphenylphosphine)ruthenium(II)] hexafluoro-phosphate [Compound 11]”, the IC50 was > 600 µM.
In the case of “[Dichlorido(1,3-diazinane-2-thione)(η^6-p-cymene)ruthenium(II)] [Compound 7]”, the IC50 is reported as > 600 µM.
With “[Dichlorido(1H-benzo[d]imidazole-2(3H)-thione)(η^6-p-cymene)ruthenium(II)] [Compound 8]” the IC50 was > 600 µM.
For “[Dichlorido(imidazolidine-2-thione)(η^6-biphenyl)ruthenium(II)] [Compound 10]”, the IC50 was > 600 µM.
For “[Dichlorido(imidazolidine-2-thione)(η^6-toluene)ruthenium(II)] [Compound 9]”, the IC50 was > 600 µM.

Same assay, conditions: jack bean urease; compared to thiourea as positive control
With `S=C1NCCCN1` [II, 1,3-diazinane-2-thione] the “urease inhibitory activity (in words)” value was “most active in the tested series”.

Same assay, conditions: jack bean urease; thiourea vs II
With `NC(N)=S` [Thiourea] the “fold more active than compound II (IC50 ratio)” value was “more than 5 times”.
